Measurements taken from patent publication US6949647B2, “Synthesis of pancratistatin” (Arizona Board of Regents, priority 2000, dated 2005).
Converted amounts (≈) assume the structure as drawn. Where a name gives a salt, the structure may show the parent alone. Read-outs that look alike come from different tables or passages of the source.

Key:
[1] = test system: P388; assay: Murine lymphocytic leukemia P388 cell line inhibition
[2] = test system: SF-295; assay: Human cancer cell line growth inhibition, CNS SF-295; conditions: for TGI: total growth inhibition
[3] = test system: KM20L2; assay: Human cancer cell line growth inhibition, colon KM20L2; conditions: for TGI: total growth inhibition
[4] = test system: NCI-H460; assay: Human cancer cell line growth inhibition, lung-NSC NCI-H460; conditions: for TGI: total growth inhibition
[5] = test system: BXPC-3; assay: Human cancer cell line growth inhibition, pancreas-a BXPC-3; conditions: for TGI: total growth inhibition
[6] = test system: Ovcar-3; assay: Human cancer cell line growth inhibition, ovarian Ovcar-3; conditions: for TGI: total growth inhibition
[7] = test system: DU-145; assay: Human cancer cell line growth inhibition, prostate DU-145; conditions: for TGI: total growth inhibition

Compound | ED50 ([1]; Murine leukemia P388) [µg/mL] | GI50 ([2]; CNS SF-295) [µg/mL] | TGI ([2]; CNS SF-295) [µg/mL] | GI50 ([3]; Colon KM20L2) [µg/mL] | TGI ([3]; Colon KM20L2) [µg/mL] | GI50 ([4]; Lung-NSC NCI-H460) [µg/mL] | TGI ([4]; Lung-NSC NCI-H460) [µg/mL] | GI50 ([5]; Pancreas-a BXPC-3) [µg/mL] | TGI ([5]; Pancreas-a BXPC-3) [µg/mL] | GI50 ([6]; Ovarian Ovcar-3) [µg/mL] | TGI ([6]; Ovarian Ovcar-3) [µg/mL] | GI50 ([7]; Prostate DU-145) [µg/mL] | TGI ([7]; Prostate DU-145) [µg/mL] | GI50 ([2]; Homo sapiens, SF-295) [µg/mL] | GI50 ([3]; Homo sapiens, KM-20L2) [µg/mL] | GI50 ([4]; Homo sapiens, NCI-H460) [µg/mL] | GI50 ([5]; Homo sapiens, BXPC-3) [µg/mL] | GI50 ([6]; Homo sapiens, OVCAR-3) [µg/mL] | GI50 ([7]; Homo sapiens, DU-145) [µg/mL] | ED50 [1] [µg/mL]
CC(=O)OC1C=C2c3cc4c(c(O)c3C(=O)NC2C2OC(C)(C)OC12)OCO4 (stereo not shown) [Compound 5, 2-Acetoxy-narciclasine 3,4-acetonide] | >10 | >10 | >10 | >10 | >10 | >10 | >10 | >10 | >10 | >10 | >10 | >10 | >10 |  |  |  |  |  |  | 
CC1(C)O[C@@H]2[C@@H](O)[C@@H](O)[C@@H]3c4cc5c(c(O)c4C(=O)N[C@H]3[C@@H]2O1)OCO5 [Compound 8, 1-Isopancratistatin 3,4-acetonide] | 2.6 (≈ 7.12 µM) |  | >10 |  | >10 |  | >10 |  | >10 |  | >10 |  | >10 | 7.2 (≈ 19.7 µM) | 6.9 (≈ 18.9 µM) | > 10 | 8.8 (≈ 24.1 µM) | 5 (≈ 13.7 µM) | 3.8 (≈ 10.4 µM) | 
CC(=O)Oc1c2c(cc3c1C(=O)NC1C3=CC(OC(C)=O)C3OC(C)(C)OC13)OCO2 (stereo not shown) [Compound 4, 2,7-Di-acetoxy-narciclasine 3,4-acetonide] | >10 | >10 | >10 | >10 | >10 | >10 | >10 | >10 | >10 | >10 | >10 | >10 | >10 |  |  |  |  |  |  | 
O=C(OC1C(O)C(O)C(O)C2NC(=O)c3c(cc4c(c3O)OCO4)C21)c1ccccc1 (stereo not shown) [Compound 13, Pancratistatin 1-Benzoate] |  | 0.0013 (≈ 0.00303 µM) | 0.0049 (≈ 0.0114 µM) | <0.001 | 0.0034 (≈ 0.00792 µM) | <0.001 |  | 0.00094 (≈ 0.00219 µM) | 0.0053 (≈ 0.0123 µM) | <0.001 | 0.0019 (≈ 0.00442 µM) |  | 0.0026 (≈ 0.00606 µM) |  |  |  |  |  |  | 0.0017 (≈ 0.00396 µM)
CC1(C)O[C@@H]2[C@@H](O)[C@@H](O)[C@H]3c4cc5c(c(O)c4C(=O)N[C@H]3[C@@H]2O1)OCO5 [Compound 9, B/C Cis-1-Isopancratistatin 3,4-acetonide] | >10 | >10 | >10 | >10 | >10 | >10 | >10 | >10 | >10 | >10 | >10 | >10 | >10 |  |  |  |  |  |  | 
COC1c2c([nH]c(=O)c3c(O)c4c(cc23)OCO4)C2OC(C)(C)OC2C1O (stereo not shown) [Compound 7, 1-Methoxy-Isonarciclasine 3,4-acetonide] | >10 | >10 | >10 | >10 | >10 | >10 | >10 | >10 | >10 | >10 | >10 | >10 | >10 |  |  |  |  |  |  | 
CC(=O)Oc1c2c(cc3c1C(=O)NC1C4OC(C)(C)OC4C(OC(C)=O)C4OC314)OCO2 (stereo not drawn) [Compound 6, 1,10b-α-epoxy-2,7-diacetoxy-narciclasine 3,4-acetonide] | >10 | >10 | >10 | >10 | >10 | >10 | >10 | >10 | >10 | >10 | >10 | >10 | >10 |  |  |  |  |  |  | 
CC1(C)O[C@@H]2[C@@H](O)[C@H]3OC34c3cc5c(c(O)c3C(=O)N[C@H]4[C@@H]2O1)OCO5 (stereo partly drawn) [Compound 10, 1,10b-α-epoxy-narciclasine 3,4-acetonide] | >10 |  | >10 |  | >10 |  | >10 |  | >10 |  | >10 |  | >10 | > 10 | > 10 | > 10 | > 10 | > 10 | > 10 | 
O=C1N[C@H]2[C@H](O)[C@H](O)[C@@H](O)[C@H](O)[C@@H]2c2cc3c(c(O)c21)OCO3 [Compound 1a, (+)-Pancratistatin] | 0.032 (≈ 0.0984 µM) |  | 0.091 (≈ 0.28 µM) |  | 0.23 (≈ 0.707 µM) |  | 0.43 (≈ 1.32 µM) |  | 0.14 (≈ 0.43 µM) |  | 0.11 (≈ 0.338 µM) |  | 0.1 (≈ 0.307 µM) | 0.017 (≈ 0.0523 µM) | 0.026 (≈ 0.0799 µM) | 0.048 (≈ 0.148 µM) | 0.028 (≈ 0.0861 µM) | 0.032 (≈ 0.0984 µM) | 0.016 (≈ 0.0492 µM) | 
O=C1N[C@@H]2C(=C[C@H](O)[C@@H](O)[C@H]2O)c2cc3c(c(O)c21)OCO3 [Compound 2, (+)-narciclasine, reference compound] | 0.0044 (≈ 0.0143 µM) | 0.012 (≈ 0.0391 µM) | 0.049 (≈ 0.159 µM) | 0.018 (≈ 0.0586 µM) | 0.012 (≈ 0.0391 µM) | 0.022 (≈ 0.0716 µM) | 0.1 (≈ 0.325 µM) | 0.016 (≈ 0.0521 µM) | 0.045 (≈ 0.146 µM) | 0.016 (≈ 0.0521 µM) | 0.044 (≈ 0.143 µM) | 0.0071 (≈ 0.0231 µM) | 0.036 (≈ 0.117 µM) |  |  |  |  |  |  | 
CC1(C)O[C@H]2[C@@H]3NC(=O)c4c(cc5c(c4O)OCO5)[C@H]3C3OS(=O)(=O)O[C@@H]3[C@H]2O1 (stereo partly shown) [Compound 12, 1-Isopancratistatin 1,2 Cyclic Sulfate-3,4-acetonide] | >10 |  | >10 |  | >10 |  | >10 |  | >10 |  | >10 |  | >10 | > 10 | > 10 | > 10 | > 10 | > 10 | > 10 | 
CC1(C)O[C@@H]2[C@H](O1)[C@@H](O)C=C1c3cc4c(c(O)c3C(=O)N[C@H]12)OCO4 [Compound 3, Narciclasine 3,4-acetonide] | >10 |  | >10 |  | >10 |  | >10 |  | >10 |  | >10 |  | >10 | > 10 | > 10 | > 10 | > 10 | > 10 | > 10 | 
